Test results reported in ChEMBL document CHEMBL4390644, “Synthesis, structure-activity relationship studies and biological characterization of new [1,2,4]triazolo[1,5-a]pyrimidine-based LSD1/KDM1A inhibitors” (Eur J Med Chem, 2019).
Active and inactive are the calls of the source. The calls are words filed in the database; no cut-off is given here.

Assays:
[1] = molecular target: T1, Lysine-specific histone demethylase 1A (Homo sapiens, UniProt O60341); experiment: Inhibition of recombinant LSD1 (unknown origin) expressed in Escherichia coli BL21(DE) using H3K4me2 substrate by amplex red and horseradish peroxidase based fluorescence assay
A549 [2] = experiment: Up regulation of E-cadherin levels in human A549 cells up to 16 uM after 96 hrs by Western blot analysis; format: functional, cell-based
[3] = molecular target: T1, Lysine-specific histone demethylase 1A; experiment: Binding affinity to LSD1 in human A549 cells assessed as increase in stability of cellular LSD1 protein at 10 to 20 uM pre-incubated for 1 hr followed by heating at 46 and 52 degC for 3 mins by Western blot-based CESTA; format: cell-based
[4] = molecular target: T1, Lysine-specific histone demethylase 1A; experiment: Inhibition of LSD1 in human A549 cells assessed as accumulation of H3K4me2 at 8 to 16 uM after 96 hrs by Western blot analysis; format: cell-based
A549 [5] = experiment: Up regulation of claudin-1 levels in human A549 cells up to 16 uM after 96 hrs by Western blot analysis; format: functional, cell-based
[6] = Antioxidant activity assessed as hydrogen peroxide scavenging activity at 10 uM incubated for 30 mins by ferrous ion oxidation-xylenol orange based method; format: functional
A549 [7] = experiment: Antiproliferative activity against human A549 cells assessed as reduction in cell viability at <40 uM measured after 72 hrs by MTT based method; format: functional
A549 [8] = experiment: Effect on LSD1 expression in human A549 cells up to 16 uM after 96 hrs by Western blot analysis; format: functional, cell-based
[9] = molecular target: T1, Lysine-specific histone demethylase 1A; experiment: Inhibition of LSD1 in human A549 cells assessed as accumulation of H3K4me1 at 8 to 16 uM after 96 hrs by Western blot analysis; format: cell-based
A549 [10] = experiment: Down regulation of N-cadherin levels in human A549 cells up to 16 uM after 96 hrs by Western blot analysis; format: functional, cell-based
[11] = molecular target: T1, Lysine-specific histone demethylase 1A; experiment: Inhibition of LSD1 in human A549 cells assessed as accumulation of H3K9me2 at 8 to 16 uM after 96 hrs by Western blot analysis; format: cell-based
A549 [12] = experiment: Down regulation of slug levels in human A549 cells up to 16 uM after 96 hrs by Western blot analysis; format: functional, cell-based
[13] = molecular target: T1, Lysine-specific histone demethylase 1A; experiment: Inhibition of LSD1 in human A549 cells assessed as accumulation of H3K9me1 at 8 to 16 uM after 96 hrs by Western blot analysis; format: cell-based
A549 [14] = experiment: Down regulation of snail levels in human A549 cells up to 16 uM after 96 hrs by Western blot analysis; format: functional, cell-based
A549 [15] = conditions: Homo sapiens, 16 uM
Description: Antimigratory activity in human A549 cells at 16 uM after 48 hrs by Hoechst 33258 staining based transwell assay

MAO-A [16] = molecular target: T2, MAO-A (Homo sapiens, UniProt P21397); experiment: Inhibition of N-terminal FLAG-tagged full length recombinant human MAO-A expressed in Sf9 cells at 10 uM using luciferin derived luminogenic substrate preincubated for 15 mins followed by substrate addition and measured after 60 mins by MAO-Glo assay relative to control; conditions: probe luciferin derived luminogenic substrate
T2 sequence (P21397 whole entry): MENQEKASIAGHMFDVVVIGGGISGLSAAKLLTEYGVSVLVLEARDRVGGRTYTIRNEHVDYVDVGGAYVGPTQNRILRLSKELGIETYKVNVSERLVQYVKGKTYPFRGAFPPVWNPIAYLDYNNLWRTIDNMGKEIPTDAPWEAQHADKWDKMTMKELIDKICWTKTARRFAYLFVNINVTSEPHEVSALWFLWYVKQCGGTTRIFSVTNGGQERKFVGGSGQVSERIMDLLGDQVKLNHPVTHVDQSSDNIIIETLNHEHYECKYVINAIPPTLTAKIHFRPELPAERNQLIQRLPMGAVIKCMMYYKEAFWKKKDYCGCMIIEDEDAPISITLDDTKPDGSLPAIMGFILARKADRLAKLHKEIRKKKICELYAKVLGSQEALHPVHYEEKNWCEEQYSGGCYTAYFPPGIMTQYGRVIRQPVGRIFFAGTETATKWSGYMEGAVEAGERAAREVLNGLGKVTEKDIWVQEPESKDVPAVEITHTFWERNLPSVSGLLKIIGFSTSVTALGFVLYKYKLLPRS

MAO-A [17] = molecular target: T2, MAO-A; experiment: Inhibition of N-terminal FLAG-tagged full length recombinant human MAO-A expressed in Sf9 cells at 1 uM using luciferin derived luminogenic substrate preincubated for 15 mins followed by substrate addition and measured after 60 mins by MAO-Glo assay relative to control; conditions: probe luciferin derived luminogenic substrate
MAO-B [18] = molecular target: T3, MAO-B (Homo sapiens, UniProt P27338); experiment: Inhibition of N-terminal FLAG-tagged full length recombinant human MAO-B expressed in Sf9 cells at 1 uM using luciferin derived luminogenic substrate preincubated for 15 mins followed by substrate addition and measured after 60 mins by MAO-Glo assay relative to control; conditions: probe luciferin derived luminogenic substrate
T3 sequence (P27338 whole entry): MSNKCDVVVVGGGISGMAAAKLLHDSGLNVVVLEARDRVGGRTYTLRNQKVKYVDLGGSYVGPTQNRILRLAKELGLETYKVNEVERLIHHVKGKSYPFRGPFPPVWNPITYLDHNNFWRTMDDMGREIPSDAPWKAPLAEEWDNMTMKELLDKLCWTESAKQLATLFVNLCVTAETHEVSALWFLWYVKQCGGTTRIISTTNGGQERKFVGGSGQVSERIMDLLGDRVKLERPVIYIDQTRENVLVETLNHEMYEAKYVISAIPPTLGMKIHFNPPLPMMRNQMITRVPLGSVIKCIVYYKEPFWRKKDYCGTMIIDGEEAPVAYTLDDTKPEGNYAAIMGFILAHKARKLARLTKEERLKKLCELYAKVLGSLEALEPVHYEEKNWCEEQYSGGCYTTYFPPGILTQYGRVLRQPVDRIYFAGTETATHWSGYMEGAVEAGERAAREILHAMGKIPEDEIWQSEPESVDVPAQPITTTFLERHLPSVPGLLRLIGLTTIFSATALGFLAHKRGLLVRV

A549 [19] = experiment: Antiproliferative activity against human A549 cells assessed as reduction in cell viability measured after 72 hrs by MTT based method; conditions: A549, 72 h
Armoracia rusticana = conditions: 10 uM
Description: Inhibition of horseradish peroxidase at 10 uM incubated for 10 mins with presence of H2O2 by absorbance based method relative to control

MAO-B [20] = molecular target: T3, MAO-B; experiment: Inhibition of N-terminal FLAG-tagged full length recombinant human MAO-B expressed in Sf9 cells at 10 uM using luciferin derived luminogenic substrate preincubated for 15 mins followed by substrate addition and measured after 60 mins by MAO-Glo assay relative to control; conditions: probe luciferin derived luminogenic substrate
A549 [21] = experiment: Antiproliferative activity against human A549 cells assessed as reduction in cell viability at 1.25 to 100 uM measured after 72 hrs by MTT based method; format: functional
[22] = molecular target: T1, Lysine-specific histone demethylase 1A; experiment: Binding affinity to LSD1 in human A549 cells assessed as increase in stability of cellular LSD1 protein at 10 uM pre-incubated for 1 hr followed by heating at 52 degC for 3 mins by Western blot-based CESTA; format: cell-based
[23] = molecular target: T1, Lysine-specific histone demethylase 1A; experiment: Binding affinity to LSD1 in human A549 cells assessed as increase in stability of cellular LSD1 protein at 10 uM pre-incubated for 1 hr followed by heating at 49 degC for 3 mins by Western blot-based CESTA; format: cell-based
[24] = molecular target: T1, Lysine-specific histone demethylase 1A; conditions: 1.6 uM
Description: Irreversible inhibition of recombinant LSD1 (unknown origin) expressed in Escherichia coli BL21(DE) assessed as recovery of enzyme activity at 1.6 uM using H3K4me2 substrate incubated for 1 hr followed by 80 fold dilution by dilution assay

Cc1cc(N)n2nc(SCc3ccccc3)nc2n1
IC50 [1]: > 50 µM

Cc1cc(Nc2ccc(N3CCN(C)CC3)cc2)n2nc(SCCCc3ccccc3)nc2n1
IC50 [1]: > 50 µM

CCCCCc1c(C)nc2nc(SCc3ccc(Cl)cc3)nn2c1Nc1ccc(N2CCN(C)CC2)cc1
IC50 [1]: > 50 µM

Cc1nc2nc(SCc3ccc(Cl)cc3)nn2c(Nc2ccc(N3CCN(C)CC3)cc2)c1C
IC50 [1]: > 50 µM

Cc1cc(Nc2ccccc2)n2nc(SCc3nc4ccccc4[nH]3)nc2n1
Activity (A549 [2]): inactive
Activity [3]: inactive
inhibition [4]: inactive
Activity (A549 [5]): inactive
Activity [6]: inactive
Activity (A549 [7]): inactive
Activity (A549 [8]): inactive
inhibition [9]: inactive
IC50 [1]: > 50 µM
Activity (A549 [10]): inactive
inhibition [11]: inactive
Activity (A549 [12]): inactive
inhibition [13]: inactive
Activity (A549 [14]): inactive

Cc1cc(Nc2ccc(N3CCN(C)CC3)cc2)n2nc(SCc3nc4ccccc4[nH]3)nc2n1
inhibition (A549 [15]): Active
Activity (A549 [2]): Active
inhibition at 1 h, 10 µM (MAO-A [16]): 40%
Activity (A549 [5]): Active
Activity [6]: inactive
Activity (A549 [8]): inactive
inhibition at 1 h, 1 µM (MAO-A [17]): 13%
Activity (A549 [10]): Active
inhibition at 1 h, 1 µM (MAO-B [18]): 18%
IC50 (A549 [19]): 23.8 µM
Activity (A549 [12]): Active
Activity (A549 [14]): Active
inhibition (Armoracia rusticana): inactive
inhibition at 1 h, 10 µM (MAO-B [20]): 34%

c1ccc([C@@H]2C[C@H]2NC2CCNCC2)cc1
Activity (A549 [2]): Active
Activity (A549 [21]): inactive
Activity (A549 [5]): Active
Activity (A549 [8]): inactive
Activity (A549 [10]): Active
Activity (A549 [12]): Active
Activity [22]: Active
Activity (A549 [14]): Active
Activity [23]: Active

O=C(O)c1ccc(CN2CCC(CN[C@@H]3C[C@H]3c3ccccc3)CC2)cc1
inhibition [24]: inactive

Cc1cc(Nc2ccccc2)n2nc(SCc3ccccc3)nc2n1
IC50 [1]: > 50 µM

CN1CCN(c2ccc(Nc3cc(-c4ccccc4)nc4ncnn34)cc2)CC1
IC50 [1]: > 50 µM

Cc1cc(Nc2ccc(N3CCN(C)CC3)cc2)n2nc(SCC3CC3)nc2n1
IC50 [1]: > 50 µM

Cc1cc(Nc2ccc(N3CCN(C)CC3)cc2)n2nc(SCc3ccccc3[N+](=O)[O-])nc2n1
IC50 [1]: > 50 µM

CN1CCN(c2ccc(Nc3c4c(nc5ncnn35)CCC4)cc2)CC1
IC50 [1]: > 50 µM
